Patent publication EP4415826B1, “SYNTHESIS AND IN VITRO ANTITUMOR ACTIVITIES OF NOVEL THIOAMIDE SUBSTITUTED PIPERAZINYL-1,2,4-TRIAZINES” (Istanbul Medipol Universitesi, priority 2021, dated 2023)
One block for each compound: values may come before it.

Assays:
Format in all cases: cell-based
[1] = test system: SH-SY5Y neuroblastoma; assay: MTT cell viability assay, SH-SY5Y; settings: 24 hours incubation; for inhibition at 50 µM: Homo sapiens, SH-SY5Y
Protocol: (§1) In the study, […] cell lines were purchased and used: SH-SY5Y(CRL-2266, ATCC, USA), C6 Glioma(CCL-107, ATCC, USA) and HEK293(CRL-1573, ATCC, USA). All cells were cultured and propagated in Dulbecco's Modified Eagle's Medium - high glucose (Cat. No:41966029, Gibco, USA), containing 10% (v/v) Foetal Bovine Serum (Cat. No:10500064, Gibco, USA), […] (10,000 U/mL)(Cat. No:15140122, Gibco, USA).
(§2) In order to assess the viability of the cells MTT […] assay was applied. Initially cells were seeded in the 96-well plates (VWR- 10062900) at a density of 10,000 cells/well and incubated in a cell culture incubator at 37 °C with 5% CO2 for 24 hours. Then, the cells were incubated with the tested compounds at the concentration of 100µM, 50µM, 25µM and 12.5µM for 24 hours. After completion of incubation in molecules, all media were removed and 50 µl MTT (Gold Biotechnology T-030) solution was added to each well and the plates were incubated for an additional 3 hours, followed by addition of 150 µl of MTT solubilization mixture containing 0.1% Triton X-100 (Cat. No:A4025, Biomatik, USA ) and 4mM HCI (Cat. No:07102, Sigma-Aldrich, Germany) in isopropanol(Cat. No:278475, Sigma-Aldrich, Germany). The solution was slowly mixed for 15 minutes to dissolve the MTT formazan crystals and the absorbance of each well was measured with HIDEX Sense Microplate Reader(Cat. No:425-301, HIDEX, Finland) at the wavelength of 570 nm.

[2] = test system: C6 glioma; assay: MTT cell viability assay, C6; settings: 24 hours incubation; for inhibition at 50 µM: C6 glioma
Protocol: as §1, §2

[3] = test system: HEK293; assay: MTT cell viability assay, HEK293 healthy cell line; settings: for inhibition at 50 µM: Homo sapiens, HEK293, 24 hours incubation
Protocol: as §1, §2

[4] = test system: U87MG glioblastoma; assay: MTT cell viability assay, U87MG; settings: 24 hours incubation
Protocol: as §2

[5] = test system: MCF7 breast tumor; assay: MTT cell viability assay, MCF7
Protocol: as §2

[6] = test system: NIH-3T3; assay: MTT cell viability assay, NIH-3T3 healthy cell line
Protocol: as §2

[7] = Homo sapiens, MCF7, 24 hours incubation
[8] = Mus musculus, NIH3T3, 24 hours incubation

Compound: N.N.[Cl][Pt][Cl] [Cisplatin, reference compound]
% inhibition (50 uM) SH-SY5Y [1]: 97.80%
% inhibition (50 uM) C6 [2]: 79.02%
% inhibition (50 uM) HEK293 ([3]; 24 hours incubation): 52.60%
IC50 [4]: 10 µM
IC50 ([5]; 24 hours incubation): 3.55 µM
IC50 ([6]; 24 hours incubation): 2.05 µM

Compound: CCNC(=S)N1CCN(c2nnc(-c3ccccc3)c(-c3ccccc3)n2)CC1 [Compound 1a, 4-(5,6-diphenyl-1,2,4-triazin-3-yl)-N-ethylpiperazine-1-carbothioamide]
inhibition at 50 µM [1]: 47.3%
inhibition at 50 µM [2]: 37.1%
inhibition at 50 µM [3]: 97.3%
IC50 ([4]; Homo sapiens, U-87 MG): 29.7 µM
IC50 [5, 7]: 62.8 µM
IC50 [6, 8]: 33.2 µM

Compound: S=C(Nc1ccccc1)N1CCN(c2nnc(-c3ccccc3)c(-c3ccccc3)n2)CC1 [Compound 1b, 4-(5,6-diphenyl-1,2,4-triazin-3-yl)-N-phenylpiperazine-1-carbothioamide]
inhibition at 50 µM [1]: 84.9%
inhibition at 50 µM [2]: 86.1%
inhibition at 50 µM [3]: 96.1%
IC50 ([4]; Homo sapiens, U-87 MG): 46 µM
IC50 [6, 8]: 42.6 µM

Compound: Cc1ccc(NC(=S)N2CCN(c3nnc(-c4ccccc4)c(-c4ccccc4)n3)CC2)cc1 [Compound 1c, 4-(5,6-diphenyl-1,2,4-triazin-3-yl)-N-(p-tolyl)piperazine-1-carbothioamide]
inhibition at 50 µM [1]: 61.6%
inhibition at 50 µM [2]: 46.8%
inhibition at 50 µM [3]: 92.6%
IC50 [5, 7]: 73.1 µM

Compound: O=[N+]([O-])c1ccc(NC(=S)N2CCN(c3nnc(-c4ccccc4)c(-c4ccccc4)n3)CC2)cc1 [Compound 1e, 4-(5,6-diphenyl-1,2,4-triazin-3-yl)-N-(4-nitrophenyl)piperazine-1-carbothioamide]
inhibition at 50 µM [1]: 21.9%
inhibition at 50 µM [2]: 94.4%
inhibition at 50 µM [3]: 95.9%

Compound: S=C(Nc1ccc(Cl)cc1)N1CCN(c2nnc(-c3ccccc3)c(-c3ccccc3)n2)CC1 [Compound 1f, N-(4-chlorophenyl)-4-(5,6-diphenyl-1,2,4-triazin-3-yl)piperazine-1-carbothioamide]
inhibition at 50 µM [1]: 94.1%
inhibition at 50 µM [2]: 66.6%
inhibition at 50 µM [3]: 73.6%
IC50 ([4]; Homo sapiens, U-87 MG): 59.1 µM
IC50 [6, 8]: 65.3 µM

Compound: S=C(Nc1ccc(Cl)cc1)N1CCN(c2nnc(-c3ccc(Cl)cc3)c(-c3ccc(Cl)cc3)n2)CC1 [Compound 1i, 4-(5,6-bis(4-chlorophenyl)-1,2,4-triazin-3-yl)-N-(4-chlorophenyl)piperazine-1-carbothioamide]
inhibition at 50 µM [1]: 83.6%
inhibition at 50 µM [2]: 78.3%
inhibition at 50 µM [3]: 68.4%
IC50 ([4]; Homo sapiens, U-87 MG): 98.6 µM
IC50 [6, 8]: 81.5 µM

Second part, led by results:

IC50 ([4]; Homo sapiens, U-87 MG): 55 µM
IC50 [5, 7]: 61.6 µM
Compound: COc1ccc(NC(=S)N2CCN(c3nnc(-c4ccccc4)c(-c4ccccc4)n3)CC2)cc1 [Compound 1d, 4-(5,6-diphenyl-1,2,4-triazin-3-yl)-N-(4-methoxyphenyl)piperazine-1-carbothioamide]
inhibition at 50 µM [1]: 68%
inhibition at 50 µM [2]: 93.3%
inhibition at 50 µM [3]: 98%

IC50 ([4]; Homo sapiens, U-87 MG): 68.1 µM
IC50 [5, 7]: 91.2 µM
Compound: COc1ccc(-c2nnc(N3CCN(C(=S)Nc4ccccc4)CC3)nc2-c2ccc(OC)cc2)cc1 [Compound 1g, 4-(5,6-bis(4-methoxyphenyl)-1,2,4-triazin-3-yl)-N-phenylpiperazine-1-carbothioamide]
inhibition at 50 µM [1]: 46.2%
inhibition at 50 µM [2]: 63.7%
inhibition at 50 µM [3]: 97.4%
IC50 [6, 8]: 76 µM

IC50 [5, 7]: 77.2 µM
Compound: S=C(Nc1ccccc1)N1CCN(c2nnc(-c3ccc(Cl)cc3)c(-c3ccc(Cl)cc3)n2)CC1 [Compound 1h, 4-(5,6-bis(4-chlorophenyl)-1,2,4-triazin-3-yl)-N-phenylpiperazine-1-carbothioamide]
inhibition at 50 µM [1]: 87.9%
inhibition at 50 µM [2]: 77.9%
inhibition at 50 µM [3]: 87.4%
IC50 [6, 8]: 40.2 µM
